Measured values published in US5126265A, “AB-021 antibiotics and process for producing them” (Presidenza del Consiglio dei Ministri-Ufficio del Ministro …, priority 1988, dated 1992).

Tested on: Streptomyces sp. NCIB 40068
Experiment: Resistance of the producing strain (Table B)
Format: cell-based
Details: producing strain Streptomyces sp. NCIB 40068

**Q.** Which “Resistance to (antimicrobial)” value does the source give for `CN(C)C1C(=O)C(C(N)=O)=C(O)C2(O)C(=O)C3=C(O)c4c(O)cccc4C(C)(O)C3C(O)C12` (stereo not drawn) [Oxytetracycline] here?
**A.** Its value is 8 ppm.

**Q.** How did the “Resistance to (antimicrobial)” value turn out when `CO[C@H]1/C=C/O[C@@]2(C)Oc3c(C)c(O)c4c(O)c(c(/C=N/N5CCN(C)CC5)c(O)c4c3C2=O)NC(=O)/C(C)=C\C=C\[C@H](C)[C@H](O)[C@@H](C)[C@@H](O)[C@@H](C)[C@H](OC(C)=O)[C@@H]1C` [Rifampicin] was run?
**A.** The value was 2 ppm.

**Q.** For Lysozyme, which “Resistance to (antimicrobial)” value is on record?
**A.** Its value is 10 ppm.
